The text below walks through data of paper PMC6155811, “Effect of Phenolic Compounds from Elderflowers on Glucose- and Fatty Acid Uptake in Human Myotubes and HepG2-Cells” (Molecules : A Journal of Synthetic Chemistry and Natural …, 2017).

In assay [1] the target is T1, xanthine oxidase from bovine milk (Bos taurus, UniProt P80457).
T1 construct: xanthine oxidase from bovine milk; purchased Sigma-Aldrich (St. Louis, MO, USA); host or cells: bovine milk
As to the kind of experiment: Inhibition of xanthine oxidase. In kind it is biochemical. The following applies: for IC50: phenolic compounds and metabolites, IC50 ± SD, read-out: XO IC50; for XO inhibition (in words): up to highest concentration tested (167 µM). As to the method: The XO inhibitory activity with hypoxanthine as the substrate was carried out previously described. Test substances were dissolved in DMSO or water.

Assay [2] concerns human skeletal muscle cells. The assay is described as follows: Oleic acid uptake in human myotubes ([14C]-oleic acid). As to conditions: for oleic acid uptake (in words): 10 µM; for increase in oleic acid uptake: 10 µM (highest concentration tested), 2 days, vs 0.1% DMSO control. In kind it is cell-based. How it is done:
Figure 3 Effects of elderflower extracts, constituents and metabolites on oleic acid uptake in human myotubes. Myotubes were treated with (A) 12.5, 25 and 50 µg/mL of different crude extracts; (B,C) 0.1, 1 and 10 µM of elderflower phenolic compounds and metabolites for 2 days. Thereafter, the cells were exposed to [^14C]-oleic acid (37 kBq, 100 µM) for 4 h as described in Materials and Methods. A synthetic liver X receptor (LXR) agonist T0901317 (10 μM) was used as positive control. The figures show [^14C]-oleic acid uptake given as means ± SEM (n = 3) from separate experiments. * p < 0.05 vs. control (0.1% DMSO).
(§1) Satellite cells were isolated from the Musculus obliquus internus abdominis of four healthy donors, age 34.8 (±19) years, body mass index 22.9 (±2.7) kg/m^2, fasting glucose 4.9 (±0.6) mM, insulin, plasma lipids and blood pressure within normal range and no family history of diabetes. The muscle biopsies were obtained with informed consent and approval by the National Committee for Research Ethics (Oslo, Norway). The cells were cultured on 96-well CellBIND microplates DMEM-Glutamax (5.5 mM glucose), 2% fetal bovine serum, 2% Ultroser G, penicillin (100 units/mL), streptomycin (100 μg/mL) and amphotericin B (1.25 μg/mL) for proliferation. At 70%–80% confluence, the growth medium was replaced by DMEM-Glutamax (5.5 mM glucose) supplemented with 2% fetal bovine serum, penicillin (100 units/mL), streptomycin (100 μg/mL), amphotericin B (1.25 μg/mL) and insulin (25 pM), to induce differentiation. The cells were cultured in humidified 5% CO2 atmosphere at 37 °C, and the medium was changed every 2–3 days. Experiments were performed after 7 days of differentiation. 22-S-hydroxycholesterol (22-SHC) (10 µM) was used as positive control in the glucose uptake assay. The positive control used in the oleic acid assay is the synthetic liver X receptor (LXR) agonist T0901317 (10 µm).
(§2) Cells were exposed to test samples solved in 0.1% DMSO that were added directly to the medium for 2 days for myotubes and 24 h for HepG2 cells. Thereafter, cells were exposed to [^14C(U)]-glucose (1 μCi/mL, 100 μM) or [^14C]-oleic acid (37 kBq, 100 µM) for 4 h. A 96-well UniFilter-96 GF7B microplate (Perkin Elmer, Waltham, MA, USA) was mounted on top of the CellBIND plate (Corning Life-Sciences (Schiphol-Rijk, The Netherlands) and CO2 production was measured. After incubation the cells were washed twice with ice-cold phosphate buffered saline (PBS), lysed in 0.1 M NaOH, and radioactivity measured by liquid scintillation counting. The protein content of each sample was determined and glucose uptake was calculated using protein levels for standardization.

Assay [3] addresses T2, Baker's yeast α-glucosidase (Saccharomyces cerevisiae, UniProt P53341).
T2 construct: purchased Sigma-Aldrich Chemie GmbH (Steinheim, Germany)
As to the kind of experiment: biochemical. The following applies: phenolic compounds and metabolites; IC50 ± SD; read-out: α-Glucosidase IC50. As to the method: The α-glucosidase inhibitory activity of the extracts was assessed according to the method described by Ranilla, et al.. Baker’s yeast α-glucosidase (EC 3.2.1.20) was purchased from Sigma-Aldrich Chemie GmbH (Steinheim, Germany).

Assay [4] deals with T3, 15-lipoxygenase (15-LO) from soybeans (Glycine max, UniProt P08170).
T3 construct: 15-lipoxygenase (15-LO) from soybeans; purchased Sigma-Aldrich (St. Louis, MO, USA); host or cells: soybeans
T3 sequence (P08170 1-839): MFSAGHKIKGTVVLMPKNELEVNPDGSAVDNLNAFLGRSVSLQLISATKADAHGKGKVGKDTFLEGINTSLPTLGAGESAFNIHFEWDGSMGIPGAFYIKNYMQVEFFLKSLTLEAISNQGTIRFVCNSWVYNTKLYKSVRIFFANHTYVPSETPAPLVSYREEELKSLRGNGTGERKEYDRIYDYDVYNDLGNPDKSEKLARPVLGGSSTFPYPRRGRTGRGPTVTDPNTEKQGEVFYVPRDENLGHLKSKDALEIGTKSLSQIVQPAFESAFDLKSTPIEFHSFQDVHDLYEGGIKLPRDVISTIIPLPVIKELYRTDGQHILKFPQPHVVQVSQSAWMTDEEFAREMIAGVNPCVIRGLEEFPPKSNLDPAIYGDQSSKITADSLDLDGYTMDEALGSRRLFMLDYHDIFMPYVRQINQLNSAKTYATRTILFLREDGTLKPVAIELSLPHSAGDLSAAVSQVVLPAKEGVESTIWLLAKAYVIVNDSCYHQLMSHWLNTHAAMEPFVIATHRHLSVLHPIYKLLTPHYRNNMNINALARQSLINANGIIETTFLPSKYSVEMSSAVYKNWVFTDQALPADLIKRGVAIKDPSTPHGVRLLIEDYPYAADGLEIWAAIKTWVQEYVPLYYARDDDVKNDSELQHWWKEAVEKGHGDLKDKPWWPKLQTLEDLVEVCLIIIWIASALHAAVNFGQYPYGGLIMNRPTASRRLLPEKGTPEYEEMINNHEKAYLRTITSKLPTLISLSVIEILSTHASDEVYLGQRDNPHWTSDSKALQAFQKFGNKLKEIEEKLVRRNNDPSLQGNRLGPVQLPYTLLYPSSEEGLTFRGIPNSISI
The assay is described as follows: Inhibition of 15-lipoxygenase. In kind it is biochemical, soybean. The following applies: phenolic compounds and metabolites; IC50 ± SD; read-out: 15-LO IC50. As to the method:
Test substances were dissolved in DMSO or water, and the assay was carried out as previously described.

For assay [5], the system named is human skeletal muscle cells. The assay is described as follows: Glucose uptake in human myotubes ([14C(U)]-glucose). Format: cell-based. The following applies: for glucose uptake (in words): 10 µM (highest concentration tested); for increase in glucose uptake: 10 µM, 2 days, vs 0.1% DMSO control, mean ± SEM. As to the method: Figure 2 Effects of elderflower extracts, constituents and metabolites on glucose uptake in human myotubes. Myotubes were treated with (A) 12.5, 25 and 50 µg/mL of different crude extracts; (B,C) 0.1, 1 and 10 µM of elderflower phenolic compounds and metabolites for 2 days. Thereafter, the cells were exposed to [^14C(U)]-glucose (1 μCi/mL, 100 μM) for 4 h as described in the Materials and Methods section. 22-S-hydroxycholesterol (22-SHC) (10 μM) was used as positive control. The figures show [^14C(U)]-glucose uptake given as means ± standard error of the mean (SEM) (n = 3) from separate experiments. * p < 0.05 vs. control (0.1% dimethyl sulfoxide (DMSO)).
as §1, §2

Assay [6] deals with T4, Porcine pancreatic α-amylase (Sus scrofa, UniProt P00690).
T4 construct: purchased Sigma-Aldrich Chemie GmbH
T4 sequence (P00690 16-511): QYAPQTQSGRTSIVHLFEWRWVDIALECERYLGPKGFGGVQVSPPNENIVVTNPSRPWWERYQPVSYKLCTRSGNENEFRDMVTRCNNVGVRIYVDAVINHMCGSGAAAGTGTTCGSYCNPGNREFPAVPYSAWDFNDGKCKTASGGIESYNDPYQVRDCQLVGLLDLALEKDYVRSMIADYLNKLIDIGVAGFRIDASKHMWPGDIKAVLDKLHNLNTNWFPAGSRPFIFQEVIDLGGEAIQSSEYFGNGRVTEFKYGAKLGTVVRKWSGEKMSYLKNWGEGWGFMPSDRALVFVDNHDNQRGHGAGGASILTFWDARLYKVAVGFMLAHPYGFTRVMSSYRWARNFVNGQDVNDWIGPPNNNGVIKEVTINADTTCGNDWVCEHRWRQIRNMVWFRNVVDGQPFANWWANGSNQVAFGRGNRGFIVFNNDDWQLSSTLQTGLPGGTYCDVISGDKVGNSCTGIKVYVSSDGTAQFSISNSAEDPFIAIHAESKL
The assay is described as follows: α-Amylase inhibitory activity. In kind it is biochemical. As to conditions: phenolic compounds and metabolites; IC50 ± SD. As to the method:
The α-amylase assay was performed as described by Gella, et al.. Porcine pancreatic α-amylase (EC 3.2.1.1) was purchased from Sigma-Aldrich Chemie GmbH.

A further assay can be described thus: DPPH radical scavenging. As to conditions: IC50 ± SD; for IC50: phenolic compounds and metabolites. How it is done:
Scavenging activity towards the DPPH radical was carried out as previously described. Test substances were dissolved in DMSO or water. Values were corrected for absorbance of the test substances.
On the technique in general: Loss of DPPH colour is used to gauge radical scavenging.

The test system of assay [7] is HepG2-cells. The assay is described as follows: Oleic acid uptake in HepG2-cells ([14C]-oleic acid). The following applies: highest concentration tested. Format: cell-based, human. As to the method: Cells were exposed to test samples solved in 0.1% DMSO that were added directly to the medium for 2 days for myotubes and 24 h for HepG2 cells. […] A 96-well UniFilter-96 GF7B microplate (Perkin Elmer, Waltham, MA, USA) was mounted on top of the CellBIND plate (Corning Life-Sciences (Schiphol-Rijk, The Netherlands) and CO2 production was measured. After incubation the cells were washed twice with ice-cold phosphate buffered saline (PBS), lysed in 0.1 M NaOH, and radioactivity measured by liquid scintillation counting. […]

In assay [8] the test system is HepG2-cells. As to the kind of experiment: Glucose uptake in HepG2-cells ([14C(U)]-glucose). As to conditions: 24 h, vs 0.1% DMSO control. Format: cell-based, human. As to the method: The human hepatoblastoma cell line HepG2 (HB-8065, ATCC, Manassas, VA, USA) was cultured in DMEM-Glutamax (5.5 mM glucose) supplemented with 10% fetal bovine serum, streptomycin (100 μg/mL) and penicillin (100 units/mL) at 37 °C in 5% CO2.
as §2

Some results are limits rather than exact numbers.

T1 sequence (P80457 whole entry): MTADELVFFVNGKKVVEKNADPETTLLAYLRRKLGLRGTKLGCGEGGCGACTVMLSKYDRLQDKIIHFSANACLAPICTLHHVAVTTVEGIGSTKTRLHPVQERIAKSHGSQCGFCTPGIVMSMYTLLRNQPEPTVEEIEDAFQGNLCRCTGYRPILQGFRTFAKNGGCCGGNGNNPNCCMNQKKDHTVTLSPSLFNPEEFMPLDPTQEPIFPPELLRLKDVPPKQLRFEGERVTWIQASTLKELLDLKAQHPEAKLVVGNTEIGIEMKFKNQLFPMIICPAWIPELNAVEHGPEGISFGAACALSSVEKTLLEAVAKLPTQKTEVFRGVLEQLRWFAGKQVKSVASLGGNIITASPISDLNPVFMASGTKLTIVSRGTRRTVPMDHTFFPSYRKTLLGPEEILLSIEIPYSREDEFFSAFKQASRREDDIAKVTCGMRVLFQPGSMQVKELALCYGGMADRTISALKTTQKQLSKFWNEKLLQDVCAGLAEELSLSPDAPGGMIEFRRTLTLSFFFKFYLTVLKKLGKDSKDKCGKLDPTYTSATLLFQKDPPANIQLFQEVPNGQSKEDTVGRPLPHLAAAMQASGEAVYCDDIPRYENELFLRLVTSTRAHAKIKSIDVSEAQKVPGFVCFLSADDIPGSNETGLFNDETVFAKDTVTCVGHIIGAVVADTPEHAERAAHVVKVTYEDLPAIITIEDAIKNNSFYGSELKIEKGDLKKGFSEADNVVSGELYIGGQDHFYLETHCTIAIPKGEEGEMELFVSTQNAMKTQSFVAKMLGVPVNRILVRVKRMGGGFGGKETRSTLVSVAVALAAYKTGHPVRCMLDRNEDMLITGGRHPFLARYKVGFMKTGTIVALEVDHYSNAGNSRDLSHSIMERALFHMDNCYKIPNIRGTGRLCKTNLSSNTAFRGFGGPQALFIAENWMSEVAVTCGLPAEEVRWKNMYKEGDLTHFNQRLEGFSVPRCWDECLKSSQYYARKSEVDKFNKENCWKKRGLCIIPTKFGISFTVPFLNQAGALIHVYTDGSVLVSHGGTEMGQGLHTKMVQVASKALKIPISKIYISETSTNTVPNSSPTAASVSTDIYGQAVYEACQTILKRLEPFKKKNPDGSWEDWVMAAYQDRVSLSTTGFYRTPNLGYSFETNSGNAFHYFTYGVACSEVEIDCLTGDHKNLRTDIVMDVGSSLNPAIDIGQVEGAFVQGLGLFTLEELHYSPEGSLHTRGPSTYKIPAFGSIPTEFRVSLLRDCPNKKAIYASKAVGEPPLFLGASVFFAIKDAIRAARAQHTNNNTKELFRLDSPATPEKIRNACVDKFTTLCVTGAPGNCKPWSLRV
T2 sequence (P53341 whole entry): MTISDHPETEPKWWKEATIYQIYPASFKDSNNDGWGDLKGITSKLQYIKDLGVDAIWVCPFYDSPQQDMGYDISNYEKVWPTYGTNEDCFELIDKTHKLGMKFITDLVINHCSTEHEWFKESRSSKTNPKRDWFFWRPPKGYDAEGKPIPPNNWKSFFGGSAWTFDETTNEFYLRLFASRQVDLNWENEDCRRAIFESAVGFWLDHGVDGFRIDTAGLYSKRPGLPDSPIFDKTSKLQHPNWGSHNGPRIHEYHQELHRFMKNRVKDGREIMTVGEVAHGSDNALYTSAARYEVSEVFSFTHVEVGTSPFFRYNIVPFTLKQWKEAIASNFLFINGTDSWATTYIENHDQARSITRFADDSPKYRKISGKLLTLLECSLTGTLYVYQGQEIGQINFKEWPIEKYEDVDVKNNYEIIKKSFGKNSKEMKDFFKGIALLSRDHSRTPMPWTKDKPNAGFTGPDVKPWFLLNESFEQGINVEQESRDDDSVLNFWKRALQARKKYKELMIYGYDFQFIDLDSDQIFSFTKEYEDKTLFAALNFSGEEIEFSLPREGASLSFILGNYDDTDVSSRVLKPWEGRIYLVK

Broadly, the IC50 is the concentration at which inhibition is half-maximal. Turning to `O=C(O)Cc1cccc(O)c1` [3-Hydroxyphenylacetic acid], the IC50 in assay [1] is > 167 µM; in [3] it was 68.9 ± 3.8 µM; in assay [4], 134 ± 5.8 µM; in [6], 44.8 ± 5.3 µM; in “DPPH radical scavenging” it was 125 ± 4.8 µM. Further, in assay [1], the “XO inhibition (in words)” value is “inactive”. For the same compound, the “oleic acid uptake (in words)” value in assay [2] is “small but significant increase”. In addition, the “glucose uptake (in words)” value in assay [5] is given as “small increase”.

Regarding `Cc1ccc(O)c(O)c1` [4-Methylcatechol], the IC50 in assay [1] was > 167 µM; in [3] it was 98.9 ± 3.5 µM; in [4] it was 129 ± 5.2 µM; in [6] it was 94.8 ± 6.8 µM; in “DPPH radical scavenging”, 40.5 ± 3.6 µM. Also, the “XO inhibition (in words)” value in assay [1] is “inactive”. The “oleic acid uptake (in words)” value in assay [2] is recorded as “small but significant increase”. Besides, the “glucose uptake (in words)” value in [5] is “small increase”.

`O=C(/C=C/c1ccc(O)c(O)c1)O[C@@H]1C[C@](O)(C(=O)O)C[C@@H](O)[C@H]1O` [Chlorogenic acid]: the IC50 in assay [1] came out at 24.2 ± 5.3 µM; in [4], 106 ± 2.3 µM; in [6], 9.1 ± 1.1 µM. Moreover, the “enhancement of oleic acid uptake” value in the assay on HepG2-cells [7] is 25.6% ± 4.6%. Also, the “increase in oleic acid uptake” value in assay [2] is reported as 17.3% ± 2.5%.

For the compound `O=c1c(O)c(-c2ccc(O)cc2)oc2cc(O)cc(O)c12` [Kaempferol], in [2], the “increase in oleic acid uptake” value is on record as 25.0% ± 3.0%. Moreover, the IC50 in assay [4] worked out at 93.7 ± 3.7 µM; in assay [6], 3.6 ± 1.1 µM; in the assay “DPPH radical scavenging” it was 10.6 ± 3.9 µM. For the same compound, the “maximal increase in glucose uptake” value in the assay on HepG2-cells [8] was 45.2% ± 2.6%. Besides, in assay [5], the “increase in glucose uptake” value was 39.1% ± 5.8%.

Regarding `O=c1c(O)c(-c2ccc(O)c(O)c2)oc2cc(O)cc(O)c12` [Quercetin], in the assay with HepG2-cells [8], the “maximal increase in glucose uptake” value is on record as 41.1% ± 3.2%. Further, in assay [5], the “increase in glucose uptake” value was 37.1% ± 4.6%. Moreover, in the assay “DPPH radical scavenging” (crude extracts), the “DPPH IC50” value was determined as 2.8 ± 0.3 µg/mL. For the same compound, in “DPPH radical scavenging”, the IC50 came to 9.3 ± 1.5 µM.
